Test results published in patent US10835542B2, “9-aminomethyl minocycline compounds and use thereof in treating community-acquired bacterial pneumonia (CABP)” (Paratek Pharmaceuticals, Inc., priority 2016, dated 2020).
“And” between values parts separate entries of the source, which are not always exact repeats. Identical values can stand only once.

How the values were obtained:
Assay type in all cases: in vivo, human
[1] = tested on: Community-Acquired Bacterial Pneumonia (CABP); experiment: Phase 3 CABP study: Investigator's Assessment of Clinical Response at PTE
Haemophilus influenzae = experiment: Clinical success at PTE by baseline pathogen, microITT; conditions: N1 = 32 (Compound 1), 16 (Moxifloxacin)
[2] = tested on: Community-Acquired Bacterial Pneumonia (CABP); experiment: Phase 3 CABP study: Early Clinical Response (72-120 h after first dose); conditions: ITT
[3] = Phase 1 multiple oral dose study: urine PK
Description: Urine samples were only collected from a subset of subjects because analysis of urine PK was added by an amendment to the study protocol after the study was already underway.
Additional parameters Ae0-4, Ae4-8, Ae8-12, Ae12-24, and Ae0-24 were also calculated.

[4] = CE-PTE, actual PORT Risk Class IV
[5] = ITT, PORT Risk Class II as randomized
[6] = ITT, PORT Risk Class III as randomized
[7] = ITT, PORT Risk Class III/IV as randomized
[8] = ITT, PORT Risk Class IV as randomized
[9] = ITT, actual PORT Risk Class III
[10] = ITT, actual PORT Risk Class III/IV

CN(C)c1cc(CNCC(C)(C)C)c(O)c2c1C[C@H]1C[C@H]3[C@H](N(C)C)C(O)=C(C(N)=O)C(=O)[C@@]3(O)C(O)=C1C2=O [Compound 1, 9-[(2,2-dimethyl-propylamino)-methyl]-minocycline]
Difference (95% CI) in clinical success at PTE ([1]; CE-PTE, actual PORT Risk Class III/IV): 2.0% and 2.0 (−2.6, 6.6)^[4] %
Clinical Failure at PTE [1, 4]: 9 (9.9) n (%)
Clinical Success at PTE [1, 4]: 82 (90.1) n (%)
Difference (95% CI) in clinical success at PTE [1, 4]: 2.9 (−6.7, 12.5)^[4] %
Difference (95% CI) in Overall Clinical Success rate at PTE, Compound 1 minus moxifloxacin ([1]; ITT): 2.5% and 2.5 (−2.4, 7.4) %
Overall clinical response at PTE: Clinical Failure ([1]; ITT): 32 (8.3) n (%)
Overall clinical response at PTE: Clinical Failure or Indeterminate ([1]; ITT): 48 (12.4) n (%)
Overall clinical response at PTE: Clinical Success ([1]; ITT): 338 (87.6) n (%)
Overall clinical response at PTE: Indeterminate ([1]; ITT): 16 (4.1) n (%)
Clinical Failure at PTE [1, 5]: 6 (10.7) n (%)
Clinical Failure or Indeterminate at PTE [1, 5]: 11 (19.6) n (%)
Clinical Success at PTE [1, 5]: 45 (80.4) n (%)
Difference (95% CI) in clinical success at PTE [1, 5]: −3.6 (−18.2, 11.0)^[4] %
Indeterminate at PTE [1, 5]: 5 (8.9) n (%)
Clinical Failure at PTE [1, 6]: 17 (7.1) n (%)
Clinical Failure or Indeterminate at PTE [1, 6]: 24 (10.0) n (%)
Clinical Success at PTE [1, 6]: 217 (90.0) n (%)
Difference (95% CI) in clinical success at PTE [1, 6]: 3.4 (−2.4, 9.4)^[4] %
Indeterminate at PTE [1, 6]: 7 (2.9) n (%)
Clinical Failure at PTE [1, 7]: 26 (7.9) n (%)
Clinical Failure or Indeterminate at PTE [1, 7]: 37 (11.2) n (%)
Clinical Success at PTE [1, 7]: 293 (88.8) n (%)
Difference (95% CI) in clinical success at PTE [1, 7]: 3.5 (−1.6, 8.7)^[4] %
Indeterminate at PTE [1, 7]: 11 (3.3) n (%)
Clinical Failure at PTE [1, 8]: 9 (10.1) n (%)
Clinical Failure or Indeterminate at PTE [1, 8]: 13 (14.6) n (%)
Clinical Success at PTE [1, 8]: 76 (85.4) n (%)
Difference (95% CI) in clinical success at PTE [1, 8]: 3.4 (−7.5, 14.0)^[4] %
Indeterminate at PTE [1, 8]: 4 (4.5) n (%)
Clinical Failure at PTE ([1]; ITT, actual PORT Risk Class II): 5 (8.8) n (%)
Clinical Failure or Indeterminate at PTE ([1]; ITT, actual PORT Risk Class II): 10 (17.5) n (%)
Clinical Success at PTE ([1]; ITT, actual PORT Risk Class II): 47 (82.5) n (%)
Difference (95% CI) in clinical success at PTE ([1]; ITT, actual PORT Risk Class II): −1.5 (−15.7, 12.8)^[4] %
Indeterminate at PTE ([1]; ITT, actual PORT Risk Class II): 5 (8.8) n (%)
Clinical Failure at PTE [1, 9]: 16 (7.0) n (%)
Clinical Failure or Indeterminate at PTE [1, 9]: 21 (9.3) n (%)
Clinical Success at PTE [1, 9]: 206 (90.7) n (%)
Difference (95% CI) in clinical success at PTE [1, 9]: 2.8 (−3.0, 8.7)^[4] %
Indeterminate at PTE [1, 9]: 5 (2.2) n (%)
Clinical Failure at PTE [1, 10]: 27 (8.2) n (%)
Clinical Failure or Indeterminate at PTE [1, 10]: 38 (11.6) n (%)
Clinical Success at PTE [1, 10]: 291 (88.4) n (%)
Difference (95% CI) in clinical success at PTE [1, 10]: 3.3% and 3.3 (−1.9, 8.5)^[4] %
Indeterminate at PTE [1, 10]: 11 (3.3) n (%)
Clinical Failure at PTE ([1]; ITT, actual PORT Risk Class IV): 11 (10.8) n (%)
Clinical Failure or Indeterminate at PTE ([1]; ITT, actual PORT Risk Class IV): 17 (16.7) n (%)
Clinical Success at PTE ([1]; ITT, actual PORT Risk Class IV): 85 (83.3) n (%)
Indeterminate at PTE ([1]; ITT, actual PORT Risk Class IV): 6 (5.9) n (%)
Clinical Success n (%) (Haemophilus influenzae): 26 (81.3) n (%)
Difference (95% CI) in Early Clinical Success rate, Compound 1 minus moxifloxacin [2]: −1.6% and −1.6 (−7.1, 3.8) %
Early Clinical Response: Clinical Failure ([2]; 72-120 h after first infusion): 49 (12.7) n (%)
Early Clinical Response: Clinical Failure or Indeterminate ([2]; 72-120 h after first infusion): 73 (18.9) n (%)
Early Clinical Response: Clinical Success ([2]; 72-120 h after first infusion): 313 (81.1) n (%)
Early Clinical Response: Indeterminate ([2]; 72-120 h after first infusion): 24 (6.2) n (%)
Ae0-24, Mean (CV) ([3]; 300 mg, Day 1 (n = 2)): 20.37 (8.3) mg
Fe0-24, Mean (CV) ([3]; 300 mg, Day 1 (n = 2)): 6.79 (8.3) %
Ae0-24, Mean (CV) ([3]; 300 mg, Day 5 (n = 3)): 26.14 (14.6) mg
Fe0-24, Mean (CV) ([3]; 300 mg, Day 5 (n = 3)): 8.71 (14.6) %
Ae0-24, Mean (CV) ([3]; 450 mg, Day 5 (n = 5)): 30.81 (33.0) mg
Fe0-24, Mean (CV) ([3]; 450 mg, Day 5 (n = 5)): 6.85 (33.0) %
Ae0-24, Mean (CV) ([3]; 600 mg, Day 1 (n = 1)): 31.96 mg
Fe0-24, Mean (CV) ([3]; 600 mg, Day 1 (n = 1)): 5.33%
Ae0-24, Mean (CV) ([3]; 600 mg, Day 5 (n = 4)): 51.82 (14.8) mg
Fe0-24, Mean (CV) ([3]; 600 mg, Day 5 (n = 4)): 8.64 (14.8) %
